Data set [1] deals with Phakopsora pachyrhizi. Put plainly: Asian rust tolerance assay of transformed soybean plants. Format: in vivo, Phakopsora pachyrhizi on Glycine max. Conditions: sprayed with 10^6 spores/mL, 15 days, control plants 45±8. As to the method:
The gene encoding the peptide gb|ABM17058.1|(213–231), primary structure […], was synthesized by Epoch Life Science Inc. (Sugar Land, TX, USA) and cloned into the vector pBluKSPOXDCAHAS replacing the oxdc gene. The vector was used to transform soybean plants as previously described, [31]. Six intragenic soybean lines were tested for tolerance to Asian rust (Phakopsora pachyrhizi). The plants (20 plants per line at V3 stage) were sprayed with a spore suspension (10^6 spores/mL) and maintained in the greenhouse at room temperature and sprinkling 4 times a day. Leaves were photographed after 15 days and the number of pustules per square centimeter counted.

Data set [2] relates to Xanthomonas axonopodis pv. glycines. As to conditions: for 1/(log(MICs (mM)), Xanthomonas axonopodis pv. glycines): from MIC, 0 where no detectable activity; for MIC, Xanthomonas axonopodis pv. glycines: serial 2-fold dilutions, 96-well, inoculum ~10^5 CFU/mL, highest 256 µg/mL, 48 h, OD600, NDA = Non-detectable activity. How it is done:
MICs were determined using the M7-A6 protocol from the Clinical Laboratory Standards Institute (CLSI). […] Initial bacterium inoculum of ∼10^5 colony forming units/mL were transferred, along with serial 2-fold dilutions of each peptide to 96-well plates and incubated for 12 h. […] For each peptide concentration, optical density (OD600) readings were subtracted from that of the growth medium and divided by the positive control (100% bacterial growth). Inhibitory assays for X. axonopodis pv. glycines were conducted by the same methodology with longer incubation time (48 h).

For data set [3], the system named is Phakopsora pachyrhizi spores. Put plainly: In situ germination inhibition of Phakopsora pachyrhizi spores on Glycine max leaves' surface. As to conditions: 8 µg/mL (3 µM) peptide co-incubated with 3.5×10^5/ml spores on G. max leaf disks, 7 days, 21°C; average of three experiments. Format: cell-based. As to the method: P. pachyrhizi spores were scraped off infected G. max leaves and were frozen at −80°C. Prior to the in situ assay, spores were dissolved in Mili-Q® water, incubated at 40°C for 40 min and quantified using a Neubauer chamber. […]. BR-16). Spores were then co-incubated with fifty microliters of a peptide solution at concentrations ranging from 8 to 128 µg/mL. Leaves were immediately placed on a Petri dish containing moist filter papers and incubated at 21°C under 12 h-photoperiod and photographed after 7 days. Images were used to measure the infected area using the QUANT v1.0.1 software.

Data set [4] relates to Staphylococcus aureus ATCC 29313. Format: cell-based. Conditions: for MIC, Staphylococcus aureus: Mueller-Hinton broth, serial 2-fold dilutions, inoculum ~10^5 CFU/mL, highest 256 µg/mL, 12 h, OD600, NDA = Non-detectable activity; for 1/(log(MICs (mM)), Staphylococcus aureus): from MIC, 0 where no detectable activity. How it is done: (§1) MICs were determined using the M7-A6 protocol from the Clinical Laboratory Standards Institute (CLSI). Escherichia coli ATCC 25922, Pseudomonas aeruginosa ATCC 27853, Staphylococcus aureus ATCC 29313 were streaked in Mueller-Hinton agar, grown overnight at 37°C, transferred to Mueller-Hinton broth and incubated until readings at 600 nm reached the equivalent of 0.5 in the MacFarland scale. […]. Inhibitory assays for X. axonopodis pv. glycines were conducted by the same methodology with longer incubation time (48 h).

Data set [5] has as its system Pseudomonas aeruginosa ATCC 27853. Format: cell-based. Conditions: for MIC, Pseudomonas aeruginosa: Mueller-Hinton broth, serial 2-fold dilutions, inoculum ~10^5 CFU/mL, highest 256 µg/mL, 12 h, OD600, NDA = Non-detectable activity; for 1/(log(MICs (mM)), Pseudomonas aeruginosa): from MIC, 0 where no detectable activity. How it is done:
as §1

Data set [6] concerns Escherichia coli ATCC 25922. Format: cell-based. As to conditions: for MIC, Escherichia coli: Mueller-Hinton broth, serial 2-fold dilutions, inoculum ~10^5 CFU/mL, highest 256 µg/mL, 12 h, OD600, NDA = Non-detectable activity; for 1/(log(MICs (mM)), Escherichia coli): from MIC, 0 where no detectable activity. As to the method: as §1
The nature of data set [7]: Far UV circular dichroism of peptides in buffer (MRE, α-helix percentage). Format: physicochemical. As to conditions: for [q]208 nm Buffer (Greenfield 69): Mean Residue Ellipticity at 208 nm; for [q]208 nm Buffer (Greenfield 69) / [q]222 nm Buffer (Chen 74): peptide in buffer, far UV CD; for [q]222 nm Buffer (Chen 74): Mean Residue Ellipticity at 222 nm; for % Helicity (Buffer) (Greenfield 69): from [q]208 nm, methodology of Greenfield et al. 1969; for % Helicity (Buffer) (Chen 74): from [q]222 nm, methodology of Chen et al. 1974. As to the method:
Far UV CD spectra were acquired for peptides at 20 µM in buffer and in the presence of DMPC or 2∶1 DMPC:DMPG LUVs at 1 mol% peptide/phospholipids. Peptides presented different degrees of secondary structures upon LUVs addition. […] Following the addition of LUVs, some peptides changed conformation resulting in spectral features characteristic of α-helical structures.
Experiments were conducted on a Jasco-J810 spectropolarimeter (Jasco International Co., Japan). Spectra were acquired at room temperature from 194 to 260 nm as an average of 4 readings using a 0.1 cm path length cell, data pitch of 0.2 nm and a response time of 0.5 s. Data Scans of buffer and 2 mM DMPC and 2∶1 DMPC:DMPG LUVs solutions were acquired and subtracted from each peptide data. Peptides were scanned at a concentration of 20 µM in buffer and then 100 fold excess of DMPC and 2∶1 DMPC:DMPG LUVs were added, resulting in a molar ratio of 0.01 peptide/phospholipids. […] Proximity to equilibrium was verified by scanning peptides added with twice the LUVs concentration, approximately 4 mM.

These results are taken from paper PMC3461044, “Probing Protein Sequences as Sources for Encrypted Antimicrobial Peptides” (PLoS ONE, 2012).

On to “MIKAFKEATKVDKVVVLWTA [gb|ABM17058.1|(213–231), IAP, fragment of G. max D-myo-inositol 3-phosphate synthase; expressed in transformed soybean lineages 72.14.5 and 72.14.9]”, for which the “number of uredia per foliar area” value in data set [1] (transformed G. max lineage 72.14.5, V3 stage) is 7±3 pustules/cm^2; in data set [1] (transformed G. max lineage 72.14.9, V3 stage), 12±3 pustules/cm^2.

As to “RWRFLRKISSVHMFSVKALDDFRQL [Gm0025x00667(75–100), novel IAP, fragment of the G. max enzyme flavonoid 3-hydroxylase]”, the “concentration that inhibited the in vitro growth of X. axonopodis pv. glycines” value in data set [2] (in vitro growth) worked out at 5 µM. For the same sequence, the infected area result in data set [3] is listed as “approximately 50 % of the control”.

Take “GLWSTIKQKGKE [DS 01 (1–12), fragment 1–12 of DS 01, Phyllomedusa oreades, reference compound]”: in data set [4], the “MIC, Staphylococcus aureus” value is “NDA” and the “1/(log(MICs (mM)), Staphylococcus aureus)” value was found to be 0. Also, in data set [5], the “MIC, Pseudomonas aeruginosa” value was “NDA” and the “1/(log(MICs (mM)), Pseudomonas aeruginosa)” value is 0. In data set [6], the “MIC, Escherichia coli” value is listed as “NDA” and the “1/(log(MICs (mM)), Escherichia coli)” value turned out to be 0. Besides, in data set [2], the “1/(log(MICs (mM)), Xanthomonas axonopodis pv. glycines)” value is recorded as 0 and the “MIC, Xanthomonas axonopodis pv. glycines” value is on record as “NDA”. In data set [7], the “[q]208 nm Buffer (Greenfield 69)” value was -9158, the “[q]222 nm Buffer (Chen 74)” value is -2137, the “% Helicity (Buffer) (Greenfield 69)” value came to 17.8% and the “% Helicity (Buffer) (Chen 74)” value was 6.1%.

In the case of “IAAAQRITSGAADIAINWAGGLHHAKK [B0CZJ3(104–130), putative IAP; fragment of Histone deacetylase complex, Laccaria bicolor]”, in data set [4], the “MIC, Staphylococcus aureus” value is recorded as “NDA” and the “1/(log(MICs (mM)), Staphylococcus aureus)” value was 0. In data set [5], the “MIC, Pseudomonas aeruginosa” value is reported as “NDA” and the “1/(log(MICs (mM)), Pseudomonas aeruginosa)” value turned out to be 0. In addition, in data set [6], the “MIC, Escherichia coli” value is listed as “NDA” and the “1/(log(MICs (mM)), Escherichia coli)” value is 0. Moreover, in data set [2], the “1/(log(MICs (mM)), Xanthomonas axonopodis pv. glycines)” value was found to be 0 and the “MIC, Xanthomonas axonopodis pv. glycines” value is given as “NDA”. In data set [7], the “[q]208 nm Buffer (Greenfield 69)” value is -17825, the “[q]222 nm Buffer (Chen 74)” value is on record as -7158, the “% Helicity (Buffer) (Greenfield 69)” value came out at 47.7% and the “% Helicity (Buffer) (Chen 74)” value came out at 20.3%.

Regarding “SLWKNLSRKISGAVKAQPDLHTLLPLPGS [Q9XEY7(120–148), putative IAP; fragment of Trehalase 1 GMTRE1, Glycine max]”, in data set [4], the “MIC, Staphylococcus aureus” value is reported as “NDA” and the “1/(log(MICs (mM)), Staphylococcus aureus)” value is listed as 0. In data set [5], the “MIC, Pseudomonas aeruginosa” value was “NDA” and the “1/(log(MICs (mM)), Pseudomonas aeruginosa)” value is listed as 0. In addition, in data set [6], the “MIC, Escherichia coli” value was “NDA” and the “1/(log(MICs (mM)), Escherichia coli)” value came to 0. In data set [2], the “1/(log(MICs (mM)), Xanthomonas axonopodis pv. glycines)” value is on record as 0 and the “MIC, Xanthomonas axonopodis pv. glycines” value is given as “NDA”. For the same sequence, in data set [7], the “[q]208 nm Buffer (Greenfield 69)” value is on record as -11377, the “[q]222 nm Buffer (Chen 74)” value is -2931, the “% Helicity (Buffer) (Greenfield 69)” value is given as 25.4% and the “% Helicity (Buffer) (Chen 74)” value is recorded as 8.3%.
